In PMC5041982, “Small-molecule inhibition of STAT3 in radioresistant head and neck squamous cell carcinoma” (Oncotarget, 2016):

Experiments:
[1] = molecular target: STAT3 (Homo sapiens, UniProt P40763); experiment: STAT3/pY-peptide binding surface plasmon resonance (SPR) assay; conditions: STAT3 200 nM, EGFR pY1068 dodecapeptide; mean, n ≥ 2; read-out: pY-Peptide Binding (SPR) IC50
Protocol: The equilibrium binding levels obtained ± compound were normalized (resonance obtained in the presence of compound ÷ the resonance obtained in the absence of compound × 100) and plotted against Log [nM] […] B. Inhibition of ligand-stimulated STAT phosphorylation, measured by phosphoflow. Serum-starved (1 hour) Kasumi-1 cells, pre-incubated with compound/DMSO (1 hour), were treated with G-CSF (10 ng/ml, 15 min, left two panels) or IFN-γ (10ng/ml, 15 min, right panel). Cells were permeabilized and stained with Alexa647-pSTAT3, and PE-pSTAT1 antibodies and analyzed on BD LSR2. FCS files were uploaded to Cytobank for pSTAT3 and pSTAT1 quantitation. Histograms depicting pSTAT3 and pSTAT1 levels are shown. C. Mean fluorescence (pSTAT3/1) levels were plotted as function the Log [M] compound, and IC50 calculated using GraphPad. […] D. Inhibition of ligand-stimulated STAT phosphorylation, measured by Luminex. Serum-starved (1 hour) Kasumi-1 cells, pre-incubated with compound/DMSO (0/0.1/0.3/1/3/10/100 μM, 1 hour), were treated with G-CSF (10 ng/ml, 15′). Total protein extracts of cells were assayed for pSTAT3, pSTAT1, and GAPDH levels by Luminex. GAPDH-normalized pSTAT3 or pSTAT1 values were divided by this ratio for untreated cells and expressed in percentage. These values were plotted as a function of Log [M] compound, and IC50 values calculated using GraphPad. […]
3-D pharmacophore sorting used to evaluate the effect of each compound on STAT3 binding. Responses were normalized by dividing the […]
fingerprint screening were converted into 3-D structures compounds at 2 min and multiplying by 100. IC values […]
for analysis as described below. were determined by plotting % maximum response as a 3-D pharmacophore generation function of log concentration of compound and fitting the Each molecular chemical feature, including experimental points to a competitive binding model using hydrogen bond donor, hydrogen bond acceptor, positive a four parameter logistic equation: R = Rhigh − (Rhigh − R low)/ (1 + conc/A1)^A2, where R = percent response at and negative ionizable group, and hydrophobic region, inhibitor concentration, R = percent response with no was generated using the LigandScout application compound, R= percent response at highest compound high framework and projected into 3-D space. concentration, A2 = fitting parameter (slope) and A1 = low Feature-pairing IC50 (BIAevaluation Software version 4.1). The inhibition Each chemical feature was converted into distance constant (Ki) was derived from the Cheng-Prusoff bin and the complete set of distance bins used to construct equation Ki=IC50/(1+[C]/Kd) as used by Halling et al a cost matrix. The most favorable pairing based on cost where C stands for STAT3 concentration used in the SPR matrix was identified. assay and Kd denotes the dissociation constant for STAT3 3-D pharmacophore transformation binding to its phosphorylated EGFR ligand in the SPR […]
STAT3/pY-peptide binding assay and total protein extracted from cell pellets. […]
STAT3 binding assays were performed at 25 °C (Millipore, Danvers, MA) coupled to antibody against

[2] = molecular target: T1, pSTAT3 (Tyr-705) (Homo sapiens, UniProt P40763); experiment: Phosphoflow, G-CSF-induced STAT3 phosphorylation in Kasumi-1 cells; format: cell-based; conditions: Kasumi-1, G-CSF 10 ng/ml 15 min; mean, n ≥ 2; read-out: Ligand Induced Phosphorylation (Phosphoflow) pSTAT3 (GCSF) IC50
T1 construct: endogenous in cells; host or cells: Kasumi-1
T1 sequence (P40763 whole entry): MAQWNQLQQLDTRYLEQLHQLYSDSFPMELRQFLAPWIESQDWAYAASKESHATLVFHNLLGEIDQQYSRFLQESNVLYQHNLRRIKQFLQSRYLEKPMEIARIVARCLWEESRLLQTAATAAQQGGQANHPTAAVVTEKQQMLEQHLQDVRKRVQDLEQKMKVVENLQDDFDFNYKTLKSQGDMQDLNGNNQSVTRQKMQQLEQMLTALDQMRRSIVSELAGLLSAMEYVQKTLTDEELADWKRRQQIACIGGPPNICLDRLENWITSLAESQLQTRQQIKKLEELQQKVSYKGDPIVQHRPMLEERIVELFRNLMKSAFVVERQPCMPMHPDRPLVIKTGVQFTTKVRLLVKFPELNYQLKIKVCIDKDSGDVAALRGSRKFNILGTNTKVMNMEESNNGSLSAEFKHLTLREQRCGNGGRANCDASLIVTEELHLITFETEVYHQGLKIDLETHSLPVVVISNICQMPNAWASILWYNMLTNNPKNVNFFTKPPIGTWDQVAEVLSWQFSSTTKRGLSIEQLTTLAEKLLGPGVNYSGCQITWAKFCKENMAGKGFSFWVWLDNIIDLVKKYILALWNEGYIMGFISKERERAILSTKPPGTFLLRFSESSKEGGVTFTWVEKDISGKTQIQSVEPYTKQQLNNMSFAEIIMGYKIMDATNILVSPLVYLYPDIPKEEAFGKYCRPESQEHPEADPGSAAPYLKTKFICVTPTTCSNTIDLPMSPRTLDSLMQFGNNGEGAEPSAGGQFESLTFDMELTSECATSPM
Protocol: (§1) The equilibrium binding levels obtained ± compound were normalized (resonance obtained in the presence of compound ÷ the resonance obtained in the absence of compound × 100) and plotted against Log [nM] […] B. Inhibition of ligand-stimulated STAT phosphorylation, measured by phosphoflow. Serum-starved (1 hour) Kasumi-1 cells, pre-incubated with compound/DMSO (1 hour), were treated with G-CSF (10 ng/ml, 15 min, left two panels) or IFN-γ (10ng/ml, 15 min, right panel). Cells were permeabilized and stained with Alexa647-pSTAT3, and PE-pSTAT1 antibodies and analyzed on BD LSR2. FCS files were uploaded to Cytobank for pSTAT3 and pSTAT1 quantitation. Histograms depicting pSTAT3 and pSTAT1 levels are shown. C. Mean fluorescence (pSTAT3/1) levels were plotted as function the Log [M] compound, and IC50 calculated using GraphPad. […] D. Inhibition of ligand-stimulated STAT phosphorylation, measured by Luminex. Serum-starved (1 hour) Kasumi-1 cells, pre-incubated with compound/DMSO (0/0.1/0.3/1/3/10/100 μM, 1 hour), were treated with G-CSF (10 ng/ml, 15′). Total protein extracts of cells were assayed for pSTAT3, pSTAT1, and GAPDH levels by Luminex. GAPDH-normalized pSTAT3 or pSTAT1 values were divided by this ratio for untreated cells and expressed in percentage. These values were plotted as a function of Log [M] compound, and IC50 values calculated using GraphPad.
(§2) Phosphoflow analysis was done as described in Xu et al. Briefly, Kasumi-1 cells, were serum-starved, pre-treated with compound or DMSO (1 hour, RT) and then stimulated with 20 μl of GCSF (10 ng/ml) for 15 minutes at 37°C. The cells were then permeabilized and stained with Alexa647-pSTAT3, Alexa488-pSTAT5 and PE-pSTAT1 antibodies and analyzed using the BD LSR2. FCS files were exported and uploaded to Cytobank for determination of phosphoproteins as earlier. Gating was done on live, single cells and then gates selected for positive ligand-activated pSTAT3 and pSTAT1. IC50 values were calculated using the GraphPad Prism.

[3] = system: pSTAT5; experiment: Phosphoflow, G-CSF-induced pSTAT5 in Kasumi-1 cells; format: cell-based; conditions: mean, n ≥ 2, read-out: Ligand Induced Phosphorylation (Phosphoflow) pSTAT5 (G-CSF) IC50
Protocol: as §2

[4] = molecular target: T2, pSTAT1 (Tyr-701) (Homo sapiens, UniProt P42224); experiment: Phosphoflow, IFN-γ-induced pSTAT1 in Kasumi-1 cells; format: cell-based; conditions: Kasumi-1, IFN-γ 10 ng/ml 15 min; mean, n ≥ 2; read-out: Ligand Induced Phosphorylation (Phosphoflow) pSTAT1 (IFN-γ) IC50
T2 construct: endogenous in cells; host or cells: Kasumi-1
T2 sequence (P42224 1-750): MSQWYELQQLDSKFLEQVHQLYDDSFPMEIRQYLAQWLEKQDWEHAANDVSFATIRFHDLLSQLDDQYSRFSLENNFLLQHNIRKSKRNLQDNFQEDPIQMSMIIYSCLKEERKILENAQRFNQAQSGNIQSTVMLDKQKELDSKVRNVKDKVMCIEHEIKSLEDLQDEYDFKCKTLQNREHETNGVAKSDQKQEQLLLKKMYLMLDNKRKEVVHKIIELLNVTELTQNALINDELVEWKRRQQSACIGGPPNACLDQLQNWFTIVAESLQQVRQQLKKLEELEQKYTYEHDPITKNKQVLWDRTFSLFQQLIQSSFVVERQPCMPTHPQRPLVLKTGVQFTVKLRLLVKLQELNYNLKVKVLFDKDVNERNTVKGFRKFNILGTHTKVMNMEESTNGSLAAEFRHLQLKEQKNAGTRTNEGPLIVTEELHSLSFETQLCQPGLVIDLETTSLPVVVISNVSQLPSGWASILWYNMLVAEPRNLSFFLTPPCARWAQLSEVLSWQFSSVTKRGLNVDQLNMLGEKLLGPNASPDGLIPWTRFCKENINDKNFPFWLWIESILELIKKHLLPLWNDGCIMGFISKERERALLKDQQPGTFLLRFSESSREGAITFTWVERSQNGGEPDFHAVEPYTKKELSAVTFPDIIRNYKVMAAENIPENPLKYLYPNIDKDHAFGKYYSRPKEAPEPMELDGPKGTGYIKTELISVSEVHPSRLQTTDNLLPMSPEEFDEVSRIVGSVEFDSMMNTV
Protocol: as §1, §2

Chain of STAT3 (P40763 whole entry, species assumed): as the sequence (P40763 whole entry) above

Row | SMILES | IC50 [1] | IC50 [2] | IC50 [3] | IC50 [4]
1 | Cc1cc(S(=O)(=O)Nc2cc3c4c(oc3c3ccccc23)CCCC4=O)ccc1Cl [Compound C188-34] | 13.5 ± 3.5 µM | > 300 µM | > 300 µM | > 300 µM
2 | O=S(=O)(Nc1ccc(O)c2ccccc12)c1cccc2cccnc12 [Compound C188-39] | > 300 µM | > 300 µM | > 300 µM | > 300 µM
3 | COc1ccc(S(=O)(=O)Nc2cc(Sc3cccc4cccnc34)c(O)c3ccccc23)cc1 [Compound C188-38] | 18.5 ± 9.2 µM |  |  | > 300 µM
4 | CC(C)OC(=O)C(C(=O)C(F)(F)F)c1cc(NS(=O)(=O)c2ccccc2)c2ccccc2c1O (centres unmarked) [Compound C188-6] | 16 ± 15.6 µM | 23.5 ± 6.4 µM |  | 
5 | O=S(=O)(Nc1cccc2ccccc12)c1ccc(Cl)cc1 [Compound C188-24] | > 300 µM | > 300 µM | > 300 µM | > 300 µM
6 | Cc1cc(C)c(S(=O)(=O)Nc2cc(C(C(=O)OC(C)C)C(=O)C(F)(F)F)c(O)c3ccccc23)cc1C (centres unmarked) [Compound C188-31] | 42 ± 7.1 µM | 13 µM | > 300 µM | 47 µM
7 | CC(C)(C)c1ccc(S(=O)(=O)Nc2cc3c4c(oc3c3ccccc23)CCCC4=O)cc1 [Compound C188-36] | 31.5 ± 7.8 µM | > 300 µM | > 300 µM | > 300 µM

The remaining lines, values ahead:

Row | IC50 [1] | IC50 [2] | IC50 [3] | IC50 [4] | SMILES
8 | 27 ± 25.5 µM | > 300 µM | > 300 µM | 9 µM | CCOC(=O)c1c(C)oc2c1cc(NS(=O)(=O)c1cccc3cccnc13)c1ccccc12 [Compound C188-20]
9 | 21.5 ± 21.9 µM | 11 ± 1.4 µM |  | 29 µM | CC(C)OC(=O)C(C(=O)C(F)(F)F)c1cc(NS(=O)(=O)c2ccc(Br)cc2)c2ccccc2c1O (centres unmarked) [Compound C188-4]
10 | > 300 µM | > 300 µM | > 300 µM | > 300 µM | CC(=O)Nc1c([N+](=O)[O-])cc(NS(=O)(=O)c2ccccc2)c2ccccc12 [Compound C188-12]
11 | 11.5 ± 7.8 µM | 27 ± 1.4 µM | > 300 µM |  | CC(C)OC(=O)C(C(=O)C(F)(F)F)c1cc(NS(=O)(=O)c2ccc(Cl)cc2)c2ccccc2c1O (centres unmarked) [Compound C188-5]
12 | 27.5 ± 10.6 µM |  | > 300 µM | > 300 µM | COCc1oc2c(cc(NS(=O)(=O)c3ccc(F)cc3)c3ccccc32)c1C(=O)OC [Compound C188-29]
